According to patent US9815850B2, “Compounds, compositions and methods” (Denali Therapeutics Inc., priority 2016, dated 2017):

Molecular target: GST-hRIPK1 (8-327) (Homo sapiens (Human), UniProt Q13546)
Test: Fluorescent Polarization Binding (FP Binding) assay
Conditions: 10 nM GST-hRIPK1 (8-327), 5 nM fluorescent labeled ligand; read-out: FP IC50
Procedure: Fluorescent Polarization Binding (FP Binding) assay (Berger S. B. et al. […] Maki J. L. et al. […] Test Compounds were serially diluted in DMSO at 100 fold final concentrations in the assay (1% DMSO final). […] For negative control the enzyme addition was replaced by assay buffer only. After addition of 5 μL of fluorescent labeled ligand at twice the final concentrations in assay buffer, the plate was incubated at RT for 30 min.

Sequence of GST-hRIPK1 (8-327) (Q13546 8-327): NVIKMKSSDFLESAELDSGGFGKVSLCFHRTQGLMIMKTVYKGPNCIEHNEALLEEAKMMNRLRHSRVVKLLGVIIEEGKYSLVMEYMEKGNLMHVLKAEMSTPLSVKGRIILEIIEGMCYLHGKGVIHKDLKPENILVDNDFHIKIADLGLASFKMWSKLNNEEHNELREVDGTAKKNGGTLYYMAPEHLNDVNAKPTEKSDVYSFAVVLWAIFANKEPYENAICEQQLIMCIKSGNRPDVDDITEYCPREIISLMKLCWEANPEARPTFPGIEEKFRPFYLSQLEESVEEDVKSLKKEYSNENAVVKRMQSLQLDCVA

SMILES | IC50 [µM]
CN1C(=O)[C@H](NC(=O)c2cc(Cc3ccccc3)[nH]n2)[C@@H]2C[C@@H]2c2cccnc21 [Example 80B, 5-benzyl-N-((1aR,2R,8bS)-4-methyl-3-oxo-1,1a,2,3,4,8b-hexahydrocyclopropa[d]pyrido[2,3-b]azepin-2-yl)-1H-pyrazole-3-carboxamide] | > 3
CN1C(=O)[C@@H](NC(=O)c2cc(Cc3ccccc3)on2)[C@H]2C[C@H]2c2cccnc21 [Example 81A, 5-benzyl-N-((1aS,2S,8bR)-4-methyl-3-oxo-1,1a,2,3,4,8b-hexahydrocyclopropa[d]pyrido[2,3-b]azepin-2-yl)isoxazole-3-carboxamide] | 0.0001 to 1
CN1C(=O)[C@H](NC(=O)c2cc(Cc3ccccc3)on2)[C@@H]2C[C@@H]2c2cccnc21 [Example 81B, 5-benzyl-N-((1aR,2R,8bS)-4-methyl-3-oxo-1,1a,2,3,4,8b-hexahydrocyclopropa[d]pyrido[2,3-b]azepin-2-yl)isoxazole-3-carboxamide] | > 3
CN1C(=O)[C@@H](NC(=O)c2nn(Cc3ccccc3)cc2F)[C@H]2C[C@H]2c2cccnc21 [Example 82A, 1-benzyl-4-fluoro-N-((1aS,2S,8bR)-4-methyl-3-oxo-1,1a,2,3,4,8b-hexahydrocyclopropa[d]pyrido[2,3-b]azepin-2-yl)-1H-pyrazole-3-carboxamide] | 0.0001 to 1
CN1C(=O)[C@H](NC(=O)c2nn(Cc3ccccc3)cc2F)[C@@H]2C[C@@H]2c2cccnc21 [Example 82B, 1-benzyl-4-fluoro-N-((1aR,2R,8bS)-4-methyl-3-oxo-1,1a,2,3,4,8b-hexahydrocyclopropa[d]pyrido[2,3-b]azepin-2-yl)-1H-pyrazole-3-carboxamide] | > 3
O=C(N[C@H]1C(=O)Nc2c(F)cc(F)cc2[C@H]2C[C@H]21)c1nnc(Cc2ccccc2)[nH]1 [Example 83B, 5-benzyl-N-((1aR,2R,8bS)-5,7-difluoro-3-oxo-1,1a,2,3,4,8b-hexahydrobenzo[b]cyclopropa[d]azepin-2-yl)-4H-1,2,4-triazole-3-carboxamide] | 1 to 10
CN1C(=O)[C@@H](NC(=O)c2nc3cccc(-c4ccccc4)c3s2)COc2ccccc21 [Example 84, (S)—N-(5-methyl-4-oxo-2,3,4,5-tetrahydrobenzo[b][1,4]oxazepin-3-yl)-7-phenylbenzo[d]thiazole-2-carboxamide] | 0.0001 to 1
CN1C(=O)[C@@H](NC(=O)c2nnc(Cc3ccccc3)s2)COc2cccnc21 [Example 85, (S)-5-benzyl-N-(5-methyl-4-oxo-2,3,4,5-tetrahydropyrido[3,2-b][1,4]oxazepin-3-yl)-1,3,4-thiadiazole-2-carboxamide] | 0.0001 to 1
CN1C(=O)[C@@H](NC(=O)c2ncc(Cc3ccccc3)s2)COc2cccnc21 [Example 86, (S)-5-benzyl-N-(5-methyl-4-oxo-2,3,4,5-tetrahydropyrido[3,2-b][1,4]oxazepin-3-yl)thiazole-2-carboxamide] | 0.0001 to 1
CN1C(=O)[C@@H](NC(=O)c2cn(C3(c4ccccc4)CC3)nn2)COc2ccccc21 [Example 87, (S)—N-(5-methyl-4-oxo-2,3,4,5-tetrahydrobenzo[b][1,4]oxazepin-3-yl)-1-(1-phenylcyclopropyl)-1H-1,2,3-triazole-4-carboxamide] | 0.0001 to 1
CN1C(=O)[C@@H](NC(=O)c2cnc(C3(c4ccccc4)CC3)[nH]2)COc2ccccc21 [Example 88, (S)—N-(5-methyl-4-oxo-2,3,4,5-tetrahydrobenzo[b][1,4]oxazepin-3-yl)-2-(1-phenylcyclopropyl)-1H-imidazole-5-carboxamide] | > 3
O=C(N[C@H]1C(=O)Nc2c(F)cc(F)cc2[C@H]2C[C@H]21)c1nnc(Cc2ccccc2)o1 [Example 89A, 5-benzyl-N-((1aR,2R,8bS)-5,7-difluoro-3-oxo-1,1a,2,3,4,8b-hexahydrobenzo[b]cyclopropa[d]azepin-2-yl)-1,3,4-oxadiazole-2-carboxamide] | 1 to 10
O=C(N[C@@H]1C(=O)Nc2c(F)cc(F)cc2[C@@H]2C[C@H]12)c1nnc(Cc2ccccc2)o1 [Example 89B, 5-benzyl-N-((1aS,2S,8bR)-5,7-difluoro-3-oxo-1,1a,2,3,4,8b-hexahydrobenzo[b]cyclopropa[d]azepin-2-yl)-1,3,4-oxadiazole-2-carboxamide] | 0.0001 to 1
O=C(N[C@H]1C(=O)Nc2c(F)cc(F)cc2[C@H]2C[C@H]21)c1cn(Cc2ccccc2)nn1 [Example 90A, 1-benzyl-N-((1aR,2R,8bS)-5,7-difluoro-3-oxo-1,1a,2,3,4,8b-hexahydrobenzo[b]cyclopropa[d]azepin-2-yl)-1H-1,2,3-triazole-4-carboxamide] | 1 to 10
O=C(N[C@@H]1C(=O)Nc2c(F)cc(F)cc2[C@@H]2C[C@H]12)c1cn(Cc2ccccc2)nn1 [Example 90B, 1-benzyl-N-((1aS,2S,8bR)-5,7-difluoro-3-oxo-1,1a,2,3,4,8b-hexahydrobenzo[b]cyclopropa[d]azepin-2-yl)-1H-1,2,3-triazole-4-carboxamide] | 0.0001 to 1
O=C(N[C@H]1COc2cccnc2NC1=O)c1cc(C2(c3ccccc3)CC2)[nH]n1 [Example 91, (S)—N-(4-oxo-2,3,4,5-tetrahydropyrido[3,2-b][1,4]oxazepin-3-yl)-5-(1-phenylcyclopropyl)-1H-pyrazole-3-carboxamide] | 0.0001 to 1

SMILES | IC50 [µM]
[2H]C([2H])([2H])N1C(=O)[C@@H](NC(=O)c2cc(C3(n4nccn4)CC3)on2)CCc2cccnc21 [Example 207] | > 3
Cc1nc(C(=O)N[C@@H]2C(=O)N(C)c3nccnc3[C@@H]3C[C@H]23)cn1Cc1ccccc1 [Example 208] | 0.0001 to 1
CN1C(=O)[C@@H](NC(=O)c2nn(Cc3cocn3)cc2F)COc2cccnc21 [Example 209, (S)-4-fluoro-N-(5-methyl-4-oxo-2,3,4,5-tetrahydropyrido[3,2-b][1,4]oxazepin-3-yl)-1-(oxazol-4-ylmethyl)-1H-pyrazole-3-carboxamide] | 0.0001 to 1
CN1C(=O)[C@@H](NC(=O)c2ncc(Cc3ccccn3)s2)COc2cccnc21 [Example 213, (S)—N-(5-methyl-4-oxo-2,3,4,5-tetrahydropyrido[3,2-b][1,4]oxazepin-3-yl)-5-(pyridin-2-ylmethyl)thiazole-2-carboxamide] | 0.0001 to 1
CN1C(=O)[C@@H](NC(=O)c2nn(Cc3ccc(F)cn3)cc2F)COc2ccccc21 [Example 214, (S)-4-fluoro-1-((5-fluoropyridin-2-yl)methyl)-N-(5-methyl-4-oxo-2,3,4,5-tetrahydrobenzo[b][1,4]oxazepin-3-yl)-1H-pyrazole-3-carboxamide] | 0.0001 to 1
CN1C(=O)[C@@H](NC(=O)c2noc(Cc3ccccc3)n2)COc2cccnc21 [Example 215, (S)-5-benzyl-N-(5-methyl-4-oxo-2,3,4,5-tetrahydropyrido[3,2-b][1,4]oxazepin-3-yl)-1,2,4-oxadiazole-3-carboxamide] | 0.0001 to 1
CN1C(=O)[C@@H](NC(=O)c2nn(Cc3ccc(Cl)cn3)cc2F)COc2ccccc21 [Example 216, (S)-1-((5-chloropyridin-2-yl)methyl)-4-fluoro-N-(5-methyl-4-oxo-2,3,4,5-tetrahydrobenzo[b][1,4]oxazepin-3-yl)-1H-pyrazole-3-carboxamide] | 0.0001 to 1
C[C@H]1Oc2cccnc2N(C)C(=O)[C@H]1NC(=O)c1nnc(Cc2ccccc2)s1 [Example 217, 5-benzyl-N-((2R,3S)-2,5-dimethyl-4-oxo-2,3,4,5-tetrahydropyrido[3,2-b][1,4]oxazepin-3-yl)-1,3,4-thiadiazole-2-carboxamide] | 0.0001 to 1
CN1C(=O)[C@@H](NC(=O)c2nnc(Cc3ccccc3)[nH]2)[C@H]2C[C@H]2c2cc(C#N)cnc21 [Example 218, 5-benzyl-N-((1aS,2S,8bR)-7-cyano-4-methyl-3-oxo-1,1a,2,3,4,8b-hexahydrocyclopropa[d]pyrido[2,3-b]azepin-2-yl)-4H-1,2,4-triazole-3-carboxamide] | 0.0001 to 1
CN1C(=O)[C@@H](NC(=O)c2ncc(Cc3cccc(C#N)c3)s2)CCc2cccnc21 [Example 219, (S)-5-(3-cyanobenzyl)-N-(9-methyl-8-oxo-6,7,8,9-tetrahydro-5H-pyrido[2,3-b]azepin-7-yl)thiazole-2-carboxamide] | 0.0001 to 1
COc1cccc(Cn2cc(F)c(C(=O)N[C@H]3COc4ccccc4N(C)C3=O)n2)n1 [Example 220, (S)-4-fluoro-1-((6-methoxypyridin-2-yl)methyl)-N-(5-methyl-4-oxo-2,3,4,5-tetrahydrobenzo[b][1,4]oxazepin-3-yl)-1H-pyrazole-3-carboxamide] | 0.0001 to 1
C[C@H]1Oc2cccnc2N(C)C(=O)[C@H]1NC(=O)c1nnc(C(F)(F)c2ccccc2)o1 [Example 221, 5-(difluoro(phenyl)methyl)-N-((2R,3S)-2,5-dimethyl-4-oxo-2,3,4,5-tetrahydropyrido[3,2-b][1,4]oxazepin-3-yl)-1,3,4-oxadiazole-2-carboxamide] | 0.0001 to 1
C[C@H]1Oc2cccnc2N(C)C(=O)[C@H]1NC(=O)c1noc(Cc2ccccc2)n1 [Example 222, 5-benzyl-N-((2R,3S)-2,5-dimethyl-4-oxo-2,3,4,5-tetrahydropyrido[3,2-b][1,4]oxazepin-3-yl)-1,2,4-oxadiazole-3-carboxamide] | 0.0001 to 1
CN1C(=O)[C@@H](NC(=O)c2nnc(Cc3ccc(F)cc3)o2)[C@H]2C[C@H]2c2nccnc21 [Example 223, 5-(4-fluorobenzyl)-N-((7S,7aS,8aR)-5-methyl-6-oxo-5,6,7,7a,8,8a-hexahydrocyclopropa[d]pyrazino[2,3-b]azepin-7-yl)-1,3,4-oxadiazole-2-carboxamide] | 0.0001 to 1
CN1C(=O)[C@@H](NC(=O)c2nn(Cc3ncccn3)cc2F)COc2ccccc21 [Example 224, (S)-4-fluoro-N-(5-methyl-4-oxo-2,3,4,5-tetrahydrobenzo[b][1,4]oxazepin-3-yl)-1-(pyrimidin-2-ylmethyl)-1H-pyrazole-3-carboxamide] | 0.0001 to 1
